Experimental data from PMC7772889, “Integrating biokinetics and in vitro studies to evaluate developmental neurotoxicity induced by chlorpyrifos in human iPSC-derived neural stem cells undergoing differentiation towards neuronal and glial cells” (Reproductive Toxicology (Elmsford, N.y.), 2020).

Tests used:
[1] = Chemical solubility and stability / recovery from medium (HPLC-UV); type: physicochemical
Description: The solubility and stability of CPF in water, medium and DMSO (the vehicle used to prepare stock solutions), were checked in preliminary assays, mimicking the actual experimental conditions: maximum concentration used; 37 °C; controlled pH; different incubation times. Samples in amber glass vials with screw caps were stored at −80 °C until the analysis for quantifying CPF by means of HPLC-UV was carried out.
Plastic-bound fraction was injected as such.

[2] = Non-specific binding to the matrix (Matrigel, without cells); type: in vitro ADME; details: no cells
Description: Due to the presence of Matrigel (Reduced Growth Factors), pre-coated well plates were treated in parallel, with the same experimental conditions of the main experiment, but in the absence of cells. In order to determine if and how CPF was sequestered by proteins in Matrigel, the content of the pre-coated wells was transferred into amber glass vials with screw caps and stored at −80 °C until HPLC analysis. For all these analyses, 4 biological replicates were carried out.

[3] = test system: CYP and GST gene expression in hiPSC-derived NSCs undergoing differentiation; test: qPCR analysis of CYP and GST gene expression after CPF treatment; type: cell-based, human; details: 21 μM CPF
Description: Analysis of gene expression by qPCR was performed in hiPSC-derived NSCs undergoing differentiation upon single and repeated treatment with 21 μM CPF or solvent control (0.1 % DMSO), collecting samples after 1, 3, 6 and 24 h (as shown in Fig. 2). RNA was isolated using the RNAqueous®-Micro Kit (ThermoFisher) according to manufacturer's instructions, and 500 ng of total RNA was reverse transcribed by using the High Capacity cDNA Reverse Transcription Kit (as directed, ThermoFisher).
qPCR reactions were run in duplicate using TaqMan® Gene Expression Master Mix (ThermoFisher) and the TaqMan gene expression assays shown in Table 1 (all from ThermoFisher).
Fluorescent emission was recorded in real-time using the ABI PRISM Sequence Detection System 7900HT (ThermoFisher). PCR amplification conditions consisted of 45 cycles with primers annealing at 60 °C. Relative RNA quantities were normalized to the reference genes GAPDH and Bactin and untreated cells were used to set calibrating conditions (ΔΔCt Method). Three biological replicates were performed.

[4] = test system: hiPSC-derived NSCs undergoing differentiation; test: Neurite outgrowth by immunocytochemistry and high content imaging (β-III-tubulin); type: cell-based, human; details: 14 days
Description: After 14 days of treatment with CPF at the nominal concentrations of 18.45, 21.21, 24.39, 28.05, 32.26, and 37.10 μM (37.10 μM equal to IC20), obtained considering a 1-to-1.15 dilution factor, cells were fixed with 4 % formaldehyde for 10 min and washed three times in PBS 1 × . After 15 min permeabilization with PBS 1X containing 0.1 % Triton-X-100 and 3,5 % bovine serum albumin (BSA), cells were further incubated with 3,5 % BSA and 1X PBS (blocking solution) for 15 min, to prevent nonspecific binding of antibodies, and then incubated at 4 °C overnight with primary antibodies in blocking solution. For synaptogenesis analysis, cells were stained with microtubule-associated protein-2 (MAP2, chicken, 1:3000, Abcam), synaptophysin (pre-synaptic marker) (SYP, rabbit, 1:300, Abcam), and post-synaptic density protein 95 (PSD95, mouse, 1:300, Abcam) specific antibodies. Neurite outgrowth and BDNF protein levels were assessed by staining the cells with an antibody specific for β-III-tubulin (mouse, 1:500, ThermoFisher), and one for BDNF (rabbit, 1:70, ThermoFisher). Cells were also stained for glial fibrillary acidic protein (GFAP, chicken, 1:500, Abcam). The following day, cells were washed three times with PBS 1X and incubated for 1 h at room temperature in the dark with DyLight-conjugated secondary antibodies (1:500, Abcam) and nuclei counterstained with 1 μg/mL DAPI (ThermoFisher). Mean fluorescence intensity and the relative percentages of immunocytochemically-defined cell types were quantified using the ArrayScan™ XTI High Content Platform (Cellomics) (ThermoFisher) and the ArrayScan algorithm 'Neuronal Profiling V4.1', as previously described. This algorithm applies a specific nucleus mask around the DAPI stained nucleus, distinguishing between live and pyknotic/dead cells, a cell body mask around the cell type antibody/antigen staining (i.e., MAP2, β-III-tubulin, or GFAP). Other masks were applied to identify the neurites, their branch points, and the fluorescence intensity levels of SYP and PSD95 puncta, or BDNF protein. […]

[5] = test system: hiPSC-derived NSCs undergoing differentiation; test: Proportion of neurons (β-III-Tubulin+) and astrocytes (GFAP+) by immunocytochemistry and HCI; type: cell-based, human; details: 14 days
Description: After 14 days of treatment with CPF at the nominal concentrations of 18.45, 21.21, 24.39, 28.05, 32.26, and 37.10 μM (37.10 μM equal to IC20), obtained considering a 1-to-1.15 dilution factor, cells were fixed with 4 % formaldehyde for 10 min and washed three times in PBS 1 × . After 15 min permeabilization with PBS 1X containing 0.1 % Triton-X-100 and 3,5 % bovine serum albumin (BSA), cells were further incubated with 3,5 % BSA and 1X PBS (blocking solution) for 15 min, to prevent nonspecific binding of antibodies, and then incubated at 4 °C overnight with primary antibodies in blocking solution. […] Neurite outgrowth and BDNF protein levels were assessed by staining the cells with an antibody specific for β-III-tubulin (mouse, 1:500, ThermoFisher), and one for BDNF (rabbit, 1:70, ThermoFisher). […] Mean fluorescence intensity and the relative percentages of immunocytochemically-defined cell types were quantified using the ArrayScan™ XTI High Content Platform (Cellomics) (ThermoFisher) and the ArrayScan algorithm 'Neuronal Profiling V4.1', as previously described. […] Other masks were applied to identify the neurites, their branch points, and the fluorescence intensity levels of SYP and PSD95 puncta, or BDNF protein. […]

[6] = test system: hiPSC-derived NSCs undergoing differentiation; test: Spontaneous electrical activity by multi-well MEA; type: cell-based, human
Description: Cells were plated in complete ND medium onto polyethyleneimine (PEI)- and laminin-coated 24-well-MEA plates (24-Well Plate Glass (24W300/30G-288) V.232, 12 gold microelectrodes/well) (MultiChannel Systems) (5 × 10^5 cells/well), and on day 7 of differentiation cells were treated with CPF at 21 μM or solvent control (0.1 % DMSO) for 14 days. Electrical activity was evaluated before adding CPF (0d) or solvent control, and monitored after 3, 7, 10 and 14 days of treatment (Fig. 2). Representative electrode recordings were considered for the analysis of spike rate (number of spikes/sec), burst count (considering a burst as a train of at least 5 spikes occurring within 100 millisec), and network burst count (the number of bursts that resulted synchronized among all 12 electrodes). Electrical activity was recorded using the Multi-well MEA-System, considering a sampling rate of 20,000 Hz, a low-pass filter cutoff frequency of 3500 Hz, and a high-pass filter cutoff frequency of 100 Hz. Data represent the average of at least three biological replicates.

[7] = test system: hiPSC-derived NSCs undergoing differentiation; set-up: method as in PMID 32093744; details: 14-day treatment, resazurin, cited from earlier work
[8] = test system: hiPSC-derived NSCs undergoing differentiation; set-up: method as in PMID 32093744; details: 14-day treatment; cited from earlier work
neuron-only cultures = details: cited from earlier work
[9] = 21 μM (IC5), significant after 7-day treatment

CCOP(=S)(OCC)Oc1nc(Cl)c(Cl)cc1Cl [CPF, Chlorpyrifos]
Solubility and stability in aqueous medium solutions and DMSO ([1]; maximum concentration, 37 °C, controlled pH, different incubation times): soluble and chemically stable | Recovery from medium ([1]; serum-free medium): 108.2 ± 18.6% | Bound-to-matrigel fraction ([2]; first day of treatment): 1.7−4.2% | Bound-to-matrigel fraction ([2]; last day of treatment): 5.8−6.5% | CYP-2C9 gene expression ([3]; first day of treatment): tendency towards upregulation | GST gene expression ([3]; first day of treatment): did not change | CYP-1A1 gene expression ([3]; first day of treatment, after 3 h, 6 h and 24 h): Up-regulation | GST-A4 gene expression ([3]; first day, after 6 h treatment): modest decrease | CYP gene expression ([3]; repeated treatment): did not significantly change | GST gene expression (all analysed GST genes) ([3]; repeated treatment): significant downregulation | CYP-2C19 gene expression ([3]; repeated treatment, after 1 h): transient upregulation | length of neurites ([4]; concentrations ≤ IC20): not significantly affected | number of branch points/neurite (neurite complexity) ([4]; concentrations ≤ IC20): lower number of branch points/neurite | number of neurites/neuron ([4]; concentrations ≤ IC20 (18.45-37.10 μM)): concentration dependent decrease | increase of neuronal cell percentage (β-III-Tubulin+) ([5]; all tested concentrations): 10–15% | increase of GFAP+ cell percentage vs solvent control ([5]; concentration dependent): 2- to 2.8 fold | number of bursts [6, 9]: modest decrease | spike rate [6, 9]: modest decrease | number of synchronized network bursts ([6]; 21 μM, starting from the 10th day of treatment): decrease | IC5 (nominal concentration causing 5 % decrease of viability) [7]: 21 µM | IC20 ([7]; nominal concentration, read-out: IC20 (viability)): 37.1 µM | in vitro nominal LOAEC for synaptogenesis [8]: 21 µM | concentration from which inhibition of neurite length, neurite number and branch points was observed (neuron-only cultures): 10 µM
